Results published in paper PMC5218480 (PLoS ONE, 2017).

System: MV-4-11 cells
Experiment: Gene expression microarray analysis (Affymetrix PrimeView) and GSEA
Format: cell-based, human
Parameters: RFU PODN (11730768_x_at) / Fold change /veh PODN (11730768_x_at) / RFU LINC00158 (11744669_a_at) / Fold change /veh LINC00158 (11744669_a_at) / RFU DUSP10 (11751237_a_at) / Fold change /veh DUSP10 (11751237_a_at) / RFU ID3 (11757404_x_at) / Fold change /veh ID3 (11757404_x_at) / RFU PLEKHG5 (11737974_s_at) / Fold change /veh PLEKHG5 (11737974_s_at) / RFU LRRC4B (11730491_at) / Fold change /veh LRRC4B (11730491_at) / RFU GIMAP4 (11747438_a_at) / Fold change /veh GIMAP4 (11747438_a_at) / RFU KRT8 (11758183_x_at) / Fold change /veh KRT8 (11758183_x_at) / RFU CNN1 (11734310_a_at) / Fold change /veh CNN1 (11734310_a_at) / RFU VPS37D (11726825_at) / Fold change /veh VPS37D (11726825_at) / RFU C10orf10 (11716522_x_at) / Fold change /veh C10orf10 (11716522_x_at) / RFU KIR2DL2 /// KIR2DL4 /// KIR2DL5A /// KIR2DL5B /// KIR2DS1 /// KIR2DS2 /// KIR2DS3 /// KIR2DS4 /// KIR3DL3 /// KIR3DL3 /// KIR3DS1 (11738374_at) / Fold change /veh KIR2DL2 /// KIR2DL4 /// KIR2DL5A /// KIR2DL5B /// KIR2DS1 /// KIR2DS2 /// KIR2DS3 /// KIR2DS4 /// KIR3DL3 /// KIR3DL3 /// KIR3DS1 (11738374_at) / RFU C1QL1 (11718748_at) / Fold change /veh C1QL1 (11718748_at) / RFU TMPRSS4 (11747572_a_at) / Fold change /veh TMPRSS4 (11747572_a_at) / RFU HAMP (11756126_x_at) / Fold change /veh HAMP (11756126_x_at) / RFU RNFT2 (11725882_a_at) / Fold change /veh RNFT2 (11725882_a_at) / RFU NR4A2 (11747474_a_at) / Fold change /veh NR4A2 (11747474_a_at) / RFU ABCC12 (11746883_a_at) / Fold change /veh ABCC12 (11746883_a_at) / RFU TMEM136 (11760407_x_at) / Fold change /veh TMEM136 (11760407_x_at) / RFU CLDN22 /// WWC2 (11732394_at) / Fold change /veh CLDN22 /// WWC2 (11732394_at) / RFU HLA-DPB1 (11760878_x_at) / Fold change /veh HLA-DPB1 (11760878_x_at) / RFU SPINT1 (11716480_a_at) / Fold change /veh SPINT1 (11716480_a_at) / RFU GAP43 (11754022_s_at) / Fold change /veh GAP43 (11754022_s_at) / RFU A4GNT (11735810_at) / Fold change /veh A4GNT (11735810_at) / RFU PRB3 (11715151_x_at) / Fold change /veh PRB3 (11715151_x_at) / RFU TUBB4B (11761932_at) / Fold change /veh TUBB4B (11761932_at) / RFU CAPN14 (11732068_a_at) / Fold change /veh CAPN14 (11732068_a_at) / RFU TMCC2 (11721928_a_at) / Fold change /veh TMCC2 (11721928_a_at) / RFU IRGQ (11745062_a_at) / Fold change /veh IRGQ (11745062_a_at) / RFU FAM174B (11720279_a_at) / Fold change /veh FAM174B (11720279_a_at) / RFU TMPRSS4 (11748680_a_at) / Fold change /veh TMPRSS4 (11748680_a_at) / RFU FAM212B (11763350_a_at) / Fold change /veh FAM212B (11763350_a_at) / RFU PLEKHG5 (11743358_a_at) / Fold change /veh PLEKHG5 (11743358_a_at) / RFU ZSCAN30 (11745921_a_at) / Fold change /veh ZSCAN30 (11745921_a_at) / RFU CMKLR1 (11741424_a_at) / Fold change /veh CMKLR1 (11741424_a_at) / RFU LOC101060620 /// MAPK8IP1 (11723275_at) / Fold change /veh LOC101060620 /// MAPK8IP1 (11723275_at) / RFU SPTSSB (11747773_x_at) / Fold change /veh SPTSSB (11747773_x_at) / RFU PRSS12 (11739890_at) / Fold change /veh PRSS12 (11739890_at) / RFU BIN1 (11741810_x_at) / Fold change /veh BIN1 (11741810_x_at) / RFU WNT11 (11732464_a_at) / Fold change /veh WNT11 (11732464_a_at) / RFU C10orf10 (11716521_a_at) / Fold change /veh C10orf10 (11716521_a_at) / RFU C5orf56 (11738089_at) / Fold change /veh C5orf56 (11738089_at) / RFU CYB561 (11721691_x_at) / Fold change /veh CYB561 (11721691_x_at) / RFU ANKRD19P (11752326_a_at) / Fold change /veh ANKRD19P (11752326_a_at) / RFU OR2T12 /// OR2T33 /// OR2T8 (11738714_s_at) / Fold change /veh OR2T12 /// OR2T33 /// OR2T8 (11738714_s_at) / RFU VCAN (11748164_a_at) / Fold change /veh VCAN (11748164_a_at) / RFU JSRP1 (11732532_at) / Fold change /veh JSRP1 (11732532_at) / RFU KRTAP10-11 (11738290_x_at) / Fold change /veh KRTAP10-11 (11738290_x_at) / RFU MYO3A (11730013_a_at) / Fold change /veh MYO3A (11730013_a_at) / RFU EBF3 (11725865_a_at) / Fold change /veh EBF3 (11725865_a_at) / RFU CAMK2N1 (11719241_x_at) / Fold change /veh CAMK2N1 (11719241_x_at) / RFU C5orf56 (11738088_a_at) / Fold change /veh C5orf56 (11738088_a_at) / RFU OLFML3 (11715873_a_at) / Fold change /veh OLFML3 (11715873_a_at) / RFU LOC100653217 /// NTM (11731650_a_at) / Fold change /veh LOC100653217 /// NTM (11731650_a_at) / RFU MAPK11 (11762145_a_at) / Fold change /veh MAPK11 (11762145_a_at) / RFU FIZ1 (11724087_x_at) / Fold change /veh FIZ1 (11724087_x_at) / RFU OASL (11726364_x_at) / Fold change /veh OASL (11726364_x_at) / RFU SOX15 (11748057_x_at) / Fold change /veh SOX15 (11748057_x_at) / RFU CD79A (11719716_a_at) / Fold change /veh CD79A (11719716_a_at) / RFU HIST1H1D (11736915_at) / Fold change /veh HIST1H1D (11736915_at) / RFU CASKIN2 (11723855_a_at) / Fold change /veh CASKIN2 (11723855_a_at) / RFU LOC730098 (11760151_x_at) / Fold change /veh LOC730098 (11760151_x_at) / RFU OR4N2 (11742367_at) / Fold change /veh OR4N2 (11742367_at) / RFU PRRT2 (11749266_a_at) / Fold change /veh PRRT2 (11749266_a_at) / RFU SNX32 (11753110_a_at) / Fold change /veh SNX32 (11753110_a_at) / RFU CDHR5 (11726645_a_at) / Fold change /veh CDHR5 (11726645_a_at) / RFU RCAN1 (11760418_a_at) / Fold change /veh RCAN1 (11760418_a_at) / RFU FAM167A (11723789_a_at) / Fold change /veh FAM167A (11723789_a_at) / RFU FAM26E (11764081_at) / Fold change /veh FAM26E (11764081_at) / RFU ISYNA1 (11749810_s_at) / Fold change /veh ISYNA1 (11749810_s_at) / RFU ACY1 (11761880_at) / Fold change /veh ACY1 (11761880_at) / RFU 11764098_at / Fold change /veh 11764098_at / RFU SAMD14 (11745864_x_at) / Fold change /veh SAMD14 (11745864_x_at) / RFU NPB (11741838_a_at) / Fold change /veh NPB (11741838_a_at) / RFU TMPRSS6 (11731388_a_at) / Fold change /veh TMPRSS6 (11731388_a_at) / RFU KRTAP10-2 (11738614_at) / Fold change /veh KRTAP10-2 (11738614_at) / RFU ARHGAP8 /// PRR5-ARHGAP8 (11727945_x_at) / Fold change /veh ARHGAP8 /// PRR5-ARHGAP8 (11727945_x_at) / RFU KRTAP5-7 /// NADSYN1 (11734609_at) / Fold change /veh KRTAP5-7 /// NADSYN1 (11734609_at) / RFU RASL12 (11751679_a_at) / Fold change /veh RASL12 (11751679_a_at) / RFU CDKN2B (11736163_a_at) / Fold change /veh CDKN2B (11736163_a_at) / RFU PRF1 (11729649_at) / Fold change /veh PRF1 (11729649_at) / RFU, ZNF638 /// ZNF638-IT1 / Fold change vs veh, ZNF638 /// ZNF638-IT1 / RFU, PANK3 / Fold change vs veh, PANK3 / RFU, SH3YL1 / Fold change vs veh, SH3YL1 / RFU, ZEB2 / Fold change vs veh, ZEB2 / RFU, NRIP1 / Fold change vs veh, NRIP1 / RFU, PTTG1IP / Fold change vs veh, PTTG1IP / RFU, CAPN2 / Fold change vs veh, CAPN2 / RFU, MED14 / Fold change vs veh, MED14 / RFU, SNORA58 / Fold change vs veh, SNORA58 / RFU, C1orf63 / Fold change vs veh, C1orf63 / RFU, LRRFIP1 / Fold change vs veh, LRRFIP1 / RFU, NDUFAF7 / Fold change vs veh, NDUFAF7 / RFU, SLC12A2 / Fold change vs veh, SLC12A2 / RFU, IBTK / Fold change vs veh, IBTK / RFU, ESF1 / Fold change vs veh, ESF1 / Fold change vs veh, TMEM50B / RFU, TAOK1 / Fold change vs veh, TAOK1 / RFU, ACBD3 / Fold change vs veh, ACBD3 / RFU, TMA16 / Fold change vs veh, TMA16 / RFU, RWDD3 / Fold change vs veh, RWDD3 / RFU, BCAT1 / Fold change vs veh, BCAT1 / RFU, EDEM3 / Fold change vs veh, EDEM3 / RFU, TMEM33 / Fold change vs veh, TMEM33 / RFU, WDR75 / Fold change vs veh, WDR75 / RFU, AHCTF1 / Fold change vs veh, AHCTF1 / RFU, TFRC / Fold change vs veh, TFRC / RFU, ZDHHC17 / Fold change vs veh, ZDHHC17 / RFU, NOM1 / Fold change vs veh, NOM1 / RFU, ARL8B / Fold change vs veh, ARL8B / RFU, ZBTB11 / Fold change vs veh, ZBTB11 / RFU, TAMM41 / Fold change vs veh, TAMM41 / RFU, KIAA1704 /// LOC100996395 / Fold change vs veh, KIAA1704 /// LOC100996395 / RFU, ING1 / Fold change vs veh, ING1 / RFU, TRMT61B / Fold change vs veh, TRMT61B / RFU, FUBP3 / Fold change vs veh, FUBP3 / RFU, TP53 / Fold change vs veh, TP53 / RFU, TNKS2 / Fold change vs veh, TNKS2 / RFU, ZFP14 / Fold change vs veh, ZFP14 / RFU, ACTR2 / Fold change vs veh, ACTR2 / RFU, PPP3R1 / Fold change vs veh, PPP3R1 / RFU, PIK3R1 / Fold change vs veh, PIK3R1 / RFU, HNRNPA1 / Fold change vs veh, HNRNPA1 / RFU, RNF170 / Fold change vs veh, RNF170 / RFU, ZNF28 / Fold change vs veh, ZNF28 / RFU, RNGTT / Fold change vs veh, RNGTT / RFU, OGT / Fold change vs veh, OGT / RFU, BRD1 / Fold change vs veh, BRD1 / RFU, MARS / Fold change vs veh, MARS / RFU, ZNF655 / Fold change vs veh, ZNF655 / RFU, FAHD1 / Fold change vs veh, FAHD1 / RFU, BDP1 / Fold change vs veh, BDP1 / RFU, LRRCC1 / Fold change vs veh, LRRCC1 / RFU, ARID1A / Fold change vs veh, ARID1A / RFU, ZNF146 / Fold change vs veh, ZNF146 / RFU, ZNF330 / Fold change vs veh, ZNF330 / RFU, GPN3 / Fold change vs veh, GPN3 / RFU, C9orf123 / Fold change vs veh, C9orf123 / RFU, N4BP2L2 / Fold change vs veh, N4BP2L2 / RFU, ARFIP1 / Fold change vs veh, ARFIP1 / RFU, FAM179B / Fold change vs veh, FAM179B / RFU, BCL10 / Fold change vs veh, BCL10 / RFU, UHRF1BP1L / Fold change vs veh, UHRF1BP1L / RFU, BET1 / Fold change vs veh, BET1 / RFU, CNOT2 / Fold change vs veh, CNOT2 / RFU, ZNF268 / Fold change vs veh, ZNF268 / Fold change vs veh, ZNF507 / RFU, DGCR2 / Fold change vs veh, DGCR2 / RFU, WDSUB1 / Fold change vs veh, WDSUB1 / Fold change vs veh, HSP90B1 /// MIR3652 / RFU, ADSS / Fold change vs veh, ADSS / RFU, GK / Fold change vs veh, GK / RFU, ZNF148 / Fold change vs veh, ZNF148 / RFU, TAF9 / Fold change vs veh, TAF9 / RFU, SLC1A5 / Fold change vs veh, SLC1A5 / RFU, SLMO2 / Fold change vs veh, SLMO2 / RFU, ABCC4 / Fold change vs veh, ABCC4 / RFU, LOC101060439 /// RAP1B / Fold change vs veh, LOC101060439 /// RAP1B / RFU, RFX7 / Fold change vs veh, RFX7 / RFU, GTPBP10 / Fold change vs veh, GTPBP10 / RFU, CNEP1R1 / Fold change vs veh, CNEP1R1 / RFU, BIVM-ERCC5 /// ERCC5 / Fold change vs veh, BIVM-ERCC5 /// ERCC5 / RFU, ILF3 / Fold change vs veh, ILF3 / RFU 11762660_at / Fold change /veh 11762660_at / RFU VCAN (11757783_s_at) / Fold change /veh VCAN (11757783_s_at) / RFU DDX43 (11728927_at) / Fold change /veh DDX43 (11728927_at) / RFU KRT8 (11758188_x_at) / Fold change /veh KRT8 (11758188_x_at) / RFU NKD1 (11759106_at) / Fold change /veh NKD1 (11759106_at) / RFU SRD5A1 (11742802_a_at) / Fold change /veh SRD5A1 (11742802_a_at) / RFU TPSAB1 /// TPSB2 (11721975_s_at) / Fold change /veh TPSAB1 /// TPSB2 (11721975_s_at) / RFU GSTM3 (11746129_a_at) / Fold change /veh GSTM3 (11746129_a_at) / RFU IL23R (11737362_x_at) / Fold change /veh IL23R (11737362_x_at) / RFU TMEM51 (11727254_a_at) / Fold change /veh TMEM51 (11727254_a_at) / RFU PIWIL2 (11732686_x_at) / Fold change /veh PIWIL2 (11732686_x_at) / RFU ORM1 (11744905_x_at) / Fold change /veh ORM1 (11744905_x_at) / RFU CCDC152 (11743942_at) / Fold change /veh CCDC152 (11743942_at) / RFU ECM1 (11717891_a_at) / Fold change /veh ECM1 (11717891_a_at) / RFU IL23R (11748794_a_at) / Fold change /veh IL23R (11748794_a_at) / RFU TNFAIP8L3 (11732012_x_at) / Fold change /veh TNFAIP8L3 (11732012_x_at) / RFU MBOAT4 (11741988_at) / Fold change /veh MBOAT4 (11741988_at) / RFU 11764193_at / Fold change /veh 11764193_at / RFU TMEM53 (11763286_at) / Fold change /veh TMEM53 (11763286_at) / RFU MAGEB2 (11727129_at) / Fold change /veh MAGEB2 (11727129_at) / RFU TMEM200A (11744735_a_at) / Fold change /veh TMEM200A (11744735_a_at) / RFU CCDC152 (11751479_a_at) / Fold change /veh CCDC152 (11751479_a_at) / RFU FAM211A (11726209_a_at) / Fold change /veh FAM211A (11726209_a_at) / RFU RGS16 (11746705_a_at) / Fold change /veh RGS16 (11746705_a_at) / RFU VCAN (11755009_s_at) / Fold change /veh VCAN (11755009_s_at) / RFU RHOB (11743442_s_at) / Fold change /veh RHOB (11743442_s_at) / RFU RGS16 (11720943_a_at) / Fold change /veh RGS16 (11720943_a_at) / RFU RGS16 (11720944_at) / Fold change /veh RGS16 (11720944_at) / RFU, VPS4B / Fold change vs veh, VPS4B / RFU, CREB1 / Fold change vs veh, CREB1 / RFU, DNAJC13 / Fold change vs veh, DNAJC13 / RFU, GNAQ / Fold change vs veh, GNAQ / RFU, CDK5R1 / Fold change vs veh, CDK5R1 / RFU, ZRANB3 / Fold change vs veh, ZRANB3 / RFU, CUL4A / Fold change vs veh, CUL4A / RFU, CCNY / Fold change vs veh, CCNY / RFU, UFL1 / Fold change vs veh, UFL1 / RFU, COG3 / Fold change vs veh, COG3 / RFU, DIAPH2 / Fold change vs veh, DIAPH2 / RFU, SKA2 / Fold change vs veh, SKA2 / RFU, AFF3 / Fold change vs veh, AFF3 / RFU, LMF1 / Fold change vs veh, LMF1 / RFU, IPO11 / Fold change vs veh, IPO11 / RFU, DFFB / Fold change vs veh, DFFB / RFU, FOXP1 / Fold change vs veh, FOXP1 / RFU, CARD8 / Fold change vs veh, CARD8 / RFU, STRN3 / Fold change vs veh, STRN3 / RFU, ADK / Fold change vs veh, ADK / RFU, RASSF2 / Fold change vs veh, RASSF2 / RFU, WIPF1 / Fold change vs veh, WIPF1 / RFU, LARP1B / Fold change vs veh, LARP1B / RFU, RASA1 / Fold change vs veh, RASA1 / RFU, RB1 / Fold change vs veh, RB1 / RFU, PPFIA1 / Fold change vs veh, PPFIA1 / RFU, MAT2A / Fold change vs veh, MAT2A / RFU, CCT5 / Fold change vs veh, CCT5 / RFU, WDR92 / Fold change vs veh, WDR92 / RFU, CUX1 / Fold change vs veh, CUX1 / RFU, TTC7A / Fold change vs veh, TTC7A / RFU, TMEM135 / Fold change vs veh, TMEM135 / RFU, DEPTOR / Fold change vs veh, DEPTOR / RFU, CPM / Fold change vs veh, CPM / RFU, DNAJB6 / Fold change vs veh, DNAJB6 / RFU, CACNA2D3 / Fold change vs veh, CACNA2D3 / RFU, DTX4 / Fold change vs veh, DTX4 / RFU, TFCP2 / Fold change vs veh, TFCP2 / RFU, GMCL1 /// GMCL1P1 / Fold change vs veh, GMCL1 /// GMCL1P1 / RFU, AEBP2 / Fold change vs veh, AEBP2 / RFU, SNHG1 /// SNORD22 /// SNORD25 /// SNORD26 /// SNORD27 /// SNORD28 /// SNORD29 /// SNORD31 / Fold change vs veh, SNHG1 /// SNORD22 /// SNORD25 /// SNORD26 /// SNORD27 /// SNORD28 /// SNORD29 /// SNORD31 / Fold change (Aza/veh), C12orf56 (ProbeSet 11735607_a_at) / Fold change (ACY-1035/veh), C12orf56 (ProbeSet 11735607_a_at) / Fold change (Aza/veh), FGFR1OP (ProbeSet 11751329_s_at) / Fold change (ACY-1035/veh), FGFR1OP (ProbeSet 11751329_s_at) / Fold change (Aza/veh), VPS36 (ProbeSet 11739960_a_at) / Fold change (ACY-1035/veh), VPS36 (ProbeSet 11739960_a_at) / RFU SYPL1 (11715823_x_at) / Fold change /veh SYPL1 (11715823_x_at) / RFU IGFBP7 (11715501_s_at) / Fold change /veh IGFBP7 (11715501_s_at) / RFU REEP3 (11722064_at) / Fold change /veh REEP3 (11722064_at) / RFU IGLL1 (11728026_x_at) / Fold change /veh IGLL1 (11728026_x_at): dose or concentration left out as unconfirmed
Conditions: ProbeSet 11725885_a_at; LIST B

Nc1ccc(-c2cccs2)cc1NC(=O)c1ccc2c(c1)cc(C1CC1)n2CCN1CCOCC1 [ACY-1035]
Fold change vs veh, CNEP1R1: 1.08
